ChEMBL document CHEMBL1201862, “PubChem BioAssay data set” (2004)
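96-well plates; 48 h exposure; 5 concentrations. Endpoints by linear interpolation between flanking doses. Not reached: highest tested concentration assigned. GI50: concentration for 50% inhibition of growth.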 Activity calls are given as the source filed them. Rule as the data show it: active = GI50 up to about 1.1 µM and inactive = higher.

Columns and labels:
Experiment in all cases: inhibition of tumour cell growth, NCI panel, 48 h
786-0 = system: 786-0
A498 = system: A498
A549 = system: A549
ACHN = system: ACHN
BT-549 = system: BT-549
CAKI-1 = system: CAKI-1
CCRF-CEM = system: CCRF-CEM
COLO 205 = system: COLO 205
DU-145 = system: DU-145
EKVX = system: EKVX
HCT-116 = system: HCT-116
HCT-15 = system: HCT-15
HL-60 = system: HL-60
HOP-92 = system: HOP-92
HT-29 = system: HT-29
Hs-578T = system: Hs-578T
IGROV-1 = system: IGROV-1
K562 = system: K562
KM12 = system: KM12
M14 = system: M14
MDA-MB-231 = system: MDA-MB-231
MDA-MB-435 = system: MDA-MB-435
MDA-N = system: MDA-N
MOLT-4 = system: MOLT-4
Malme-3M = system: Malme-3M
NCI-H226 = system: NCI-H226
NCI-H23 = system: NCI-H23
NCI-H460 = system: NCI-H460
NCI-H522 = system: NCI-H522
NCI/ADR-RES = system: NCI/ADR-RES
OVCAR-4 = system: OVCAR-4
OVCAR-5 = system: OVCAR-5
OVCAR-8 = system: OVCAR-8
PC-3 = system: PC-3
RPMI-8226 = system: RPMI-8226
SF-268 = system: SF-268
SF-295 = system: SF-295
SF-539 = system: SF-539
SK-MEL-28 = system: SK-MEL-28
SK-MEL-2 = system: SK-MEL-2
SK-MEL-5 = system: SK-MEL-5
SK-OV-3 = system: SK-OV-3
SN12C = system: SN12C
SNB-19 = system: SNB-19
SR = system: SR
SW-620 = system: SW-620
T47D = system: T47D
TK-10 = system: TK-10
U-251 = system: U-251
UACC-257 = system: UACC-257
UACC-62 = system: UACC-62
UO-31 = system: UO-31
HOP-62 = system: HOP-62
LOX IMVI = system: LOX IMVI
MCF7 = system: MCF7
OVCAR-3 = system: OVCAR-3
RXF 393 = system: RXF 393
SNB-75 = system: SNB-75

With `CCOC(=O)c1cnc(-n2[nH]c3c(c2=O)CCCC3)[nH]c1=O` the GI50 (786-0) was 60 µM (inactive), the GI50 (A498) was 62.8 µM (inactive) and the GI50 (A549) was 63.1 µM (inactive). The GI50 (ACHN) was 50.2 µM (inactive), the GI50 (BT-549) was 47.1 µM (inactive) and the GI50 (CAKI-1) was 48.1 µM (inactive). For the same compound, the GI50 (CCRF-CEM) was 28.8 µM (inactive), the GI50 (COLO 205) was 26.2 µM (inactive) and the GI50 (DU-145) was 57.9 µM (inactive). The GI50 (EKVX) was 80.4 µM (inactive), the GI50 (HCT-116) was 36.4 µM (inactive) and the GI50 (HCT-15) was 44.1 µM. The GI50 (HL-60) was 28.1 µM (inactive), the GI50 (HOP-92) was 0.859 µM (active) and the GI50 (HT-29) was 40.4 µM (inactive). The GI50 (Hs-578T) was > 100 µM (inactive), the GI50 (IGROV-1) was > 100 µM (inactive) and the GI50 (K562) was 20.7 µM (inactive). For the same compound, the GI50 (KM12) was 67.5 µM (inactive), the GI50 (M14) was 36.4 µM (inactive) and the GI50 (MDA-MB-231) was 57.1 µM (inactive). For the same compound, the GI50 (MDA-MB-435) was 47.8 µM (inactive), the GI50 (MDA-N) was 86.1 µM (inactive) and the GI50 (MOLT-4) was 43 µM (inactive). For the same compound, the GI50 (Malme-3M) was 77.6 µM (inactive), the GI50 (NCI-H226) was 47.1 µM (inactive) and the GI50 (NCI-H23) was 72.8 µM (inactive). For the same compound, the GI50 (NCI-H460) was 45.5 µM (inactive), the GI50 (NCI-H522) was 52.4 µM (inactive) and the GI50 (NCI/ADR-RES) was 34.8 µM (inactive). For the same compound, the GI50 (OVCAR-4) was 57.5 µM (inactive), the GI50 (OVCAR-5) was 82.4 µM (inactive) and the GI50 (OVCAR-8) was 37.5 µM (inactive). The GI50 (PC-3) was 57.4 µM (inactive), the GI50 (RPMI-8226) was 52.7 µM (inactive) and the GI50 (SF-268) was 55.8 µM (inactive). The GI50 (SF-295) was 62.7 µM (inactive), the GI50 (SF-539) was 48.1 µM (inactive) and the GI50 (SK-MEL-28) was 20.9 µM (inactive). The GI50 (SK-MEL-2) was 42.6 µM (inactive), the GI50 (SK-MEL-5) was 75.2 µM (inactive) and the GI50 (SK-OV-3) was 80.5 µM (inactive). For the same compound, the GI50 (SN12C) was 52.5 µM (inactive), the GI50 (SNB-19) was > 100 µM (inactive) and the GI50 (SR) was 13.3 µM (inactive). For the same compound, the GI50 (SW-620) was 35.2 µM (inactive), the GI50 (T47D) was > 100 µM (inactive) and the GI50 (TK-10) was > 100 µM (inactive). The GI50 (U-251) was 39.7 µM (inactive), the GI50 (UACC-257) was 32.4 µM (inactive) and the GI50 (UACC-62) was 29.6 µM (inactive). The GI50 (UO-31) was 54.6 µM (inactive).

With `C#CCOC(=O)C(N)CS` (centres undefined) the GI50 (786-0) was > 100 µM (inactive), the GI50 (A498) was > 100 µM (inactive) and the GI50 (A549) was > 100 µM (inactive). The GI50 (ACHN) was > 100 µM (inactive), the GI50 (BT-549) was > 100 µM (inactive) and the GI50 (CAKI-1) was > 100 µM (inactive). The GI50 (CCRF-CEM) was > 100 µM (inactive), the GI50 (COLO 205) was > 100 µM (inactive) and the GI50 (DU-145) was > 100 µM (inactive). The GI50 (EKVX) was > 100 µM (inactive), the GI50 (HCT-116) was > 100 µM (inactive) and the GI50 (HL-60) was > 100 µM (inactive). For the same compound, the GI50 (HOP-62) was > 100 µM (inactive), the GI50 (HOP-92) was > 100 µM (inactive) and the GI50 (HT-29) was > 100 µM (inactive). For the same compound, the GI50 (Hs-578T) was > 100 µM (inactive), the GI50 (IGROV-1) was > 100 µM (inactive) and the GI50 (K562) was > 100 µM (inactive). The GI50 (KM12) was > 100 µM (inactive), the GI50 (LOX IMVI) was > 100 µM (inactive) and the GI50 (M14) was > 100 µM (inactive). The GI50 (MCF7) was > 100 µM (inactive), the GI50 (MDA-MB-231) was > 100 µM (inactive) and the GI50 (MDA-MB-435) was > 100 µM (inactive). For the same compound, the GI50 (MDA-N) was > 100 µM (inactive), the GI50 (MOLT-4) was > 100 µM (inactive) and the GI50 (Malme-3M) was > 100 µM (inactive). For the same compound, the GI50 (NCI-H226) was > 100 µM (inactive), the GI50 (NCI-H23) was > 100 µM (inactive) and the GI50 (NCI-H522) was > 100 µM (inactive). The GI50 (NCI/ADR-RES) was > 100 µM (inactive), the GI50 (OVCAR-3) was > 100 µM (inactive) and the GI50 (OVCAR-5) was > 100 µM (inactive). For the same compound, the GI50 (OVCAR-8) was > 100 µM (inactive), the GI50 (PC-3) was > 100 µM (inactive) and the GI50 (RPMI-8226) was > 100 µM (inactive). For the same compound, the GI50 (RXF 393) was > 100 µM (inactive), the GI50 (SF-268) was > 100 µM (inactive) and the GI50 (SF-295) was > 100 µM (inactive). The GI50 (SK-MEL-28) was > 100 µM (inactive), the GI50 (SK-MEL-2) was > 100 µM (inactive) and the GI50 (SK-MEL-5) was > 100 µM (inactive). For the same compound, the GI50 (SK-OV-3) was > 100 µM (inactive), the GI50 (SN12C) was > 100 µM (inactive) and the GI50 (SNB-75) was > 100 µM (inactive). The GI50 (SW-620) was > 100 µM (inactive), the GI50 (T47D) was > 100 µM (inactive) and the GI50 (TK-10) was > 100 µM (inactive). For the same compound, the GI50 (U-251) was > 100 µM (inactive), the GI50 (UACC-257) was > 100 µM (inactive) and the GI50 (UACC-62) was > 100 µM (inactive). For the same compound, the GI50 (UO-31) was > 100 µM (inactive).
